# Tested on: cotton pellet induced granuloma
# Assay: Cotton pellet granuloma (compound impregnated in pellet)
# Assay type: in vivo
# Conditions: SD rats
# Method: SD rats were used for assessing anti-inflammatory activity of test compound using cotton pellet granuloma method. Sterilized cotton pellets weighing 20 mg were prepared. Test compounds were dissolved in acetone so as to get the required quantity for each cotton pellet in 500 μl. Different pellets were impregnated with 500 μl of acetone to contain required quantity of test compounds and allowed to dry. Vehicle control pellets were impregnated with 500 μl acetone. Rats were made into different groups. Two cotton pellets were surgically implanted into the scapular region of each rat. On sixth day of such implantation, pellets along with granuloma were taken out. Thymus gland was also separated from each animal and weighed. The pellets with granuloma were dried for 20 hrs at 60° C. and weighed. Mean weights of dry granuloma and thymus, body weight gain/100 g body weights were calculated.
Molecule,Mean % Inhibition of Granuloma (dose 3 mcg per pellet),Thymus wt. (% Decrease) (dose 3 mcg per pellet),Mean % Inhibition of Granuloma (dose 1000 mcg per pellet),other results
"CC1CC2C3CCC4=CC(=O)C=CC4(C)C3(F)C(O)CC2(C)C1(OC(=O)c1ccco1)C(=O)SOCc1ccc(F)cc1 (stereo not drawn) [IC.9, 9α-Fluoro-17α-[(2-furanylcarbonyl)oxy]-11β-hydroxy-16α-methyl-3-oxoandrosta-1,4-diene-17β-carbonylsulfenic acid (4-fluorophenyl)methyl ester.]",34.3%,2.51%,–,–
"CCC(=O)O[C@]1(C(=O)OCC(=O)c2ccccc2)[C@H](C)CC2C3C[C@H](F)C4=CC(=O)C=C[C@]4(C)[C@@]3(F)[C@@H](O)C[C@@]21C (stereo partly drawn) [IA.44, 2-Phenyl-2-oxoethyl 6α,9α-difluoro-11β-hydroxy-16α-methyl-3-oxo-17α-propionyloxyandrosta-1,4-diene-17β-carboxylate]",–,–,71.79%,–
"6α,9α-Difluoro-11β-hydroxy-16α-methyl-3-oxo-17α-propionyloxyandrosta-1,4-diene-17β-carbonylsulfenic acid (4-trifluoromethylphenyl)methyl eseter. [IC.8]",45.15%,3.38%,–,–
"CCC(=O)O[C@]1(C(=O)SCC(=O)c2ccc(C(F)(F)F)cc2)[C@H](C)CC2C3C[C@H](F)C4=CC(=O)C=C[C@]4(C)[C@@]3(F)[C@@H](O)C[C@@]21C (stereo partly drawn) [IA.38, S-[2-Oxo-2-(4-trifluoromethylphenyl)ethyl]6α,9α-difluoro-11β-hydroxy-16α-methyl-3-oxo-17α-propionyloxyandrosta-1,4-diene-17β-carbothioate]",–,–,–,Mean % Inhibition of Granuloma (dose 10 mcg per pellet): 67.17%
"CC1CC2C3CC(F)C4=CC(=O)C=CC4(C)C3(F)C(O)CC2(C)C1(OC(=O)c1ccco1)C(=O)SOCc1ccc(C(F)(F)F)cc1 (stereo not drawn) [IC.6, 6α,9α-Difluoro-17α-[(2-furanylcarbonyl)oxy]-11β-hydroxy-16α-methyl-3-oxoandrosta-1,4-diene-17β-carbonylsulfenic acid (4-trifluoromethylphenyl)methyl ester.]",–,–,84.96%,Thymus wt. (% Decrease) (dose 1000 mcg per pellet): 10.96%
"CCC(=O)O[C@]1(C(=O)SC(C)(C)C(=O)c2ccccc2)[C@H](C)CC2C3C[C@H](F)C4=CC(=O)C=C[C@]4(C)[C@@]3(F)[C@@H](O)C[C@@]21C (stereo partly drawn) [IA.59, S-[1,1-Dimethyl-2-oxo-2-phenylethyl]6α,9α-difluoro-11β-hydroxy-16α-methyl-3-oxo-17α-propionyloxyandrosta-1,4-diene-17β-carbothioate]",–,–,76.86%,–
